Experiments:
[1] = system: DIC model (thrombin injected into ICR mice); assay: Effect on DIC model (thrombin-induced fatality, survival rate); format: in vivo; details: dose 1 mg/kg i.v. one minute before 800 U/kg thrombin; after 24 hours
Procedure: D-HG, FGAG and heparin were tested for an effect on DIC model in accordance with the method described in Japan J. Pharmacol, 35, 203-227 (1984).
Used as D-HG was the sodium salt obtained in Example 16, as FGAG the sodium/potassium salt obtained in Reference Example 1 and as a heparin a sodium salt having a potency of 185.6 U/mg.
A 800 U/kg of thrombin was intravenously injected into ICR mice (10 to 15 mice a group). […] The D-HG sodium salt, FGAG sodium/potassium salt or heparin sodium salt was intravenously injected one minute before the administration of thrombin.

[2] = system: citric acid-containing plasma (activated partial thromboplastin time); assay: Anti-coagulation activity in human: x2APTT; format: biochemical; details: concentration required to double APTT of control
Text: (§1) Using the citric acid-containing plasma obtained from more than 6 normal persons, the D-HG sodium salt (Example 16), a FGAG sodium/potassium salt and a heparin sodium salt were each observed for the activity in respect of anticoagulation parameters (μg/ml).

thrombin = assay: Anti-coagulation activity in human: IIaIC90 (thrombin time); format: biochemical; details: concentration for 90% inhibition of thrombin activity, from thrombin time; human plasma
Procedure: as §1
IIaIC90 is a concentration (μg/ml) for 90% inhibition of thrombin activity which was calculated by measuring the activity to prolong the thrombin time.

factor X = assay: Anti-coagulation activity in human: XaIC50 (decomposition of synthetic substrate S2222); format: biochemical; details: 50% inhibition of decomposition of synthetic substrate S2222
Text: as §1
XaIC50 is a medicament concentration (μg/ml) for 50% inhibition of decomposition of synthetic substrate S2222 with a factor X.

factor VIII = assay: Anti-coagulation activity in human: VIII IC80 (factor VIII deficient plasma); format: biochemical; details: 80% inhibition of factor VIII, contact-activated coagulation time
Procedure: as §1
VIII IC80 is a medicament concentration (μg/ml) for 80% inhibition of factor VIII which was calculated by measuring the activity to prolong the contact-activated coagulation time in the presence of a small amount of factor VIII using a factor VIII deficient plasma.

[3] = system: thrombin generation (inactivation of prothrombin in contact-activated plasma); assay: Anti-coagulation activity in human: IIaGI (thrombin generation); format: biochemical; details: concentration required to double control's time for complete inactivation of prothrombin in contact-activated plasma
Text: as §1
IIaGI is the concentration (μg/ml) required to double the control's time for complete inactivation of prothrombin in the contact-activated plasma. This represents an activity to inhibit the thrombin generation.

[4] = system: plasma-free washed platelet; assay: Inhibitory activity against thrombin-induced platelets aggregation; format: cell-based; details: 3 μg/ml; 0.1 U/ml thrombin; rabbit washed platelets (control 86.6)
Procedure: The result of addition of the D-HG sodium salt obtained in Example 16 or a heparin sodium salt having a potency of 185.6 U/mg was evaluated by observing the aggregation of platelets (expressed in an increase of light transmittance) caused by the addition of 0.1 U/ml of thrombin to a suspension of plasma-free washed platelet obtained from a rabbit.

heparin [Heparin sodium salt] gave a Survival rate [1] of 80%, a x2APTT [2] of 1.2 µg/mL and an IIaIC90 (thrombin) of 0.3 µg/mL. The XaIC50 (factor X) was 3.4 µg/mL, the “VIII IC80” value (factor VIII) was 0.79 µg/mL and the IIaGI [3] was 1.2 µg/mL. For the same substance, the Light transmittance [4] was 80.2%.

From patent US5519010A, “Sulfated polysaccharide, pharmaceutically acceptable salt thereof, process for preparing same and medicament containing same as effective component” (Taiho Pharmaceutical Co., Ltd., priority 1989, dated 1996)
